In the supplement of paper PMC10307832:

Experiments:
Experiment in all cases: relative viability (nuclei count vs DMSO), 5 days (fraction); higher = more cells survive
[1] = compound: CC1=C(C(=O)N2C=CSC2=N1)CCN3CCC(=C(C4=CC=CC=C4)C5=CC=C(C=C5)F)CC3 + O=C(CCCCCCC(=O)Nc1ccccc1)NO [Vorinostat] (partner 1 µM)
Summary of the method: (§1)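 Relative viability was taken as the ratio of nuclei in treated wells to nuclei in vehicle wells. Lung cancer cell lines in 1536-well plates received compounds by pin tool one day after seeding, either one drug alone or a fixed anchor-drug dose plus five library-drug doses (not always all listed) in √10 steps. Nuclei were counted on 4× images after 5 days of treatment, and values are medians of duplicate plates.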

[2] = compound: CC1=C(C(=O)N2C=CSC2=N1)CCN3CCC(=C(C4=CC=CC=C4)C5=CC=C(C=C5)F)CC3 + C[C@]1(O)C[C@@H](c2nc(-c3ccc4ccc(-c5ccccc5)nc4c3)c3c(N)nccn32)C1 [Linsitinib] (partner 1 µM)
Summary of the method: as §1

[3] = compound: CC1=C(C(=O)N2C=CSC2=N1)CCN3CCC(=C(C4=CC=CC=C4)C5=CC=C(C=C5)F)CC3 + CC1(C)CCC(c2ccc(Cl)cc2)=C(CN2CCN(c3ccc(C(=O)NS(=O)(=O)c4ccc(N[C@H](CCN5CCOCC5)CSc5ccccc5)c(S(=O)(=O)C(F)(F)F)c4)cc3)CC2)C1 [Navitoclax] (partner 0.5 µM)
Summary of the method: as §1

[4] = compound: CC1=C(C(=O)N2C=CSC2=N1)CCN3CCC(=C(C4=CC=CC=C4)C5=CC=C(C=C5)F)CC3 + Cc1nc(NC(=O)N2CCC[C@H]2C(N)=O)sc1-c1ccnc(C(C)(C)C(F)(F)F)c1 [Alpelisib] (partner 2 µM)
Summary of the method: as §1

Q: What does the source list for NCI-H1437?
A: relative viability ([1]; first compound 0.08 µM): 0.702; relative viability ([1]; first compound 0.253 µM): 0.867; relative viability ([1]; first compound 0.8 µM): 0.901; relative viability ([1]; first compound 2.53 µM): 0.9; relative viability ([1]; first compound 8 µM): 0.386; relative viability ([2]; first compound 0.253 µM): 1.07; relative viability ([2]; first compound 0.8 µM): 1.14; relative viability ([2]; first compound 2.53 µM): 1.14; relative viability ([2]; first compound 8 µM): 0.622; relative viability ([3]; first compound 0.253 µM): 0.924; relative viability ([3]; first compound 0.8 µM): 1.09; relative viability ([3]; first compound 2.53 µM): 1.44; relative viability ([3]; first compound 8 µM): 0.693; relative viability ([4]; first compound 0.253 µM): 1.01; relative viability ([4]; first compound 0.8 µM): 1.09; relative viability ([4]; first compound 2.53 µM): 1.21; relative viability ([4]; first compound 8 µM): 0.729

Q: Which results are given for LU99A?
A: relative viability ([1]; first compound 0.08 µM): 0.433; relative viability ([1]; first compound 0.253 µM): 0.418; relative viability ([1]; first compound 0.8 µM): 0.381; relative viability ([1]; first compound 2.53 µM): 0.525; relative viability ([1]; first compound 8 µM): 0.207; relative viability ([2]; first compound 0.08 µM): 0.565; relative viability ([2]; first compound 0.253 µM): 0.495; relative viability ([2]; first compound 0.8 µM): 0.517; relative viability ([2]; first compound 2.53 µM): 0.666; relative viability ([2]; first compound 8 µM): 0.446; relative viability ([3]; first compound 0.08 µM): 0.919; relative viability ([3]; first compound 0.253 µM): 0.867; relative viability ([3]; first compound 0.8 µM): 0.734; relative viability ([3]; first compound 2.53 µM): 0.929; relative viability ([3]; first compound 8 µM): 0.631; relative viability ([4]; first compound 0.08 µM): 0.47; relative viability ([4]; first compound 0.253 µM): 0.47; relative viability ([4]; first compound 0.8 µM): 0.496; relative viability ([4]; first compound 2.53 µM): 0.621; relative viability ([4]; first compound 8 µM): 0.456

Q: Which results are given for HCC-78?
A: relative viability ([1]; first compound 0.08 µM): 0.385; relative viability ([1]; first compound 0.253 µM): 0.458; relative viability ([1]; first compound 0.8 µM): 0.546; relative viability ([1]; first compound 2.53 µM): 0.424; relative viability ([1]; first compound 8 µM): 0.476; relative viability ([2]; first compound 0.08 µM): 0.547; relative viability ([2]; first compound 0.253 µM): 0.499; relative viability ([2]; first compound 0.8 µM): 0.518; relative viability ([2]; first compound 2.53 µM): 0.54; relative viability ([2]; first compound 8 µM): 0.443; relative viability ([3]; first compound 0.08 µM): 0.834; relative viability ([3]; first compound 0.253 µM): 0.786; relative viability ([3]; first compound 0.8 µM): 0.924; relative viability ([3]; first compound 2.53 µM): 0.838; relative viability ([3]; first compound 8 µM): 0.608; relative viability ([4]; first compound 0.08 µM): 0.352; relative viability ([4]; first compound 0.253 µM): 0.347; relative viability ([4]; first compound 0.8 µM): 0.324; relative viability ([4]; first compound 2.53 µM): 0.379; relative viability ([4]; first compound 8 µM): 0.286

Q: Which results are given for NCI-H647?
A: relative viability ([1]; first compound 0.08 µM): 0.681; relative viability ([1]; first compound 0.253 µM): 0.574; relative viability ([1]; first compound 0.8 µM): 0.603; relative viability ([1]; first compound 2.53 µM): 0.514; relative viability ([1]; first compound 8 µM): 0.333; relative viability ([2]; first compound 0.08 µM): 1.1; relative viability ([2]; first compound 0.253 µM): 0.895; relative viability ([2]; first compound 0.8 µM): 1.16; relative viability ([2]; first compound 2.53 µM): 1.86; relative viability ([2]; first compound 8 µM): 0.846; relative viability ([3]; first compound 0.08 µM): 1.12; relative viability ([3]; first compound 0.253 µM): 1.13; relative viability ([3]; first compound 0.8 µM): 1.11; relative viability ([3]; first compound 2.53 µM): 1.2; relative viability ([3]; first compound 8 µM): 0.476; relative viability ([4]; first compound 0.08 µM): 1.71; relative viability ([4]; first compound 0.253 µM): 1.24; relative viability ([4]; first compound 0.8 µM): 0.993; relative viability ([4]; first compound 2.53 µM): 1.06; relative viability ([4]; first compound 8 µM): 0.793

Q: Which results are given for COR-L 105?
A: relative viability ([1]; first compound 0.08 µM): 0.58; relative viability ([1]; first compound 0.253 µM): 0.738; relative viability ([1]; first compound 0.8 µM): 0.882; relative viability ([1]; first compound 2.53 µM): 1.29; relative viability ([1]; first compound 8 µM): 0.607; relative viability ([2]; first compound 0.08 µM): 0.892; relative viability ([2]; first compound 0.253 µM): 0.832; relative viability ([2]; first compound 0.8 µM): 1.05; relative viability ([2]; first compound 2.53 µM): 0.96; relative viability ([2]; first compound 8 µM): 0.597; relative viability ([3]; first compound 0.08 µM): 0.765; relative viability ([3]; first compound 0.253 µM): 0.708; relative viability ([3]; first compound 0.8 µM): 0.724; relative viability ([3]; first compound 2.53 µM): 0.808; relative viability ([3]; first compound 8 µM): 0.634; relative viability ([4]; first compound 0.08 µM): 0.984; relative viability ([4]; first compound 0.253 µM): 1.09; relative viability ([4]; first compound 0.8 µM): 1.16; relative viability ([4]; first compound 2.53 µM): 1.1; relative viability ([4]; first compound 8 µM): 0.963

Q: What does the source list for NCI-H2009?
A: relative viability ([1]; first compound 0.08 µM): 0.71; relative viability ([1]; first compound 0.253 µM): 0.715; relative viability ([1]; first compound 0.8 µM): 0.728; relative viability ([1]; first compound 2.53 µM): 0.778; relative viability ([1]; first compound 8 µM): 0.556; relative viability ([2]; first compound 0.08 µM): 1.29; relative viability ([2]; first compound 0.253 µM): 1.29; relative viability ([2]; first compound 0.8 µM): 1.19; relative viability ([2]; first compound 2.53 µM): 1.16; relative viability ([2]; first compound 8 µM): 1.12; relative viability ([3]; first compound 0.08 µM): 1.15; relative viability ([3]; first compound 0.253 µM): 1.14; relative viability ([3]; first compound 0.8 µM): 1.18; relative viability ([3]; first compound 2.53 µM): 1.22; relative viability ([3]; first compound 8 µM): 1.09; relative viability ([4]; first compound 0.08 µM): 1.26; relative viability ([4]; first compound 0.253 µM): 1.16; relative viability ([4]; first compound 0.8 µM): 1.2; relative viability ([4]; first compound 2.53 µM): 1.19; relative viability ([4]; first compound 8 µM): 1.08

Q: How did the relative viability ([1]; first compound 0.08 µM) turn out when NCI-H2405 was run?
A: The relative viability was 1.18.

Q: What about the relative viability ([1]; first compound 0.8 µM) of the same cell line?
A: The relative viability was 1.08.

Q: And the relative viability ([1]; first compound 2.53 µM)?
A: The relative viability was 1.06.

Q: And the relative viability ([1]; first compound 8 µM)?
A: Its relative viability is 0.789.

Q: And the relative viability ([2]; first compound 0.08 µM)?
A: The relative viability was 0.999.

Q: And the relative viability ([2]; first compound 0.253 µM)?
A: Its relative viability is 1.14.

Q: And the relative viability ([2]; first compound 0.8 µM)?
A: The relative viability was 1.1.

Q: What about the relative viability ([2]; first compound 2.53 µM) of the same cell line?
A: Its relative viability is 0.862.

Q: And the relative viability ([2]; first compound 8 µM)?
A: The relative viability was 0.744.

Q: And the relative viability ([3]; first compound 0.08 µM)?
A: Its relative viability is 0.892.

Q: And the relative viability ([3]; first compound 0.253 µM)?
A: The relative viability was 0.968.

Q: What about the relative viability ([3]; first compound 0.8 µM) of the same cell line?
A: Its relative viability is 1.08.

Q: What about the relative viability ([3]; first compound 2.53 µM) of the same cell line?
A: The relative viability was 0.962.

Q: What about the relative viability ([3]; first compound 8 µM) of the same cell line?
A: Its relative viability is 0.705.

Q: What about the relative viability ([4]; first compound 0.08 µM) of the same cell line?
A: The relative viability was 0.74.

Q: And the relative viability ([4]; first compound 0.253 µM)?
A: Its relative viability is 0.798.

Q: What about the relative viability ([4]; first compound 0.8 µM) of the same cell line?
A: The relative viability was 0.914.

Q: And the relative viability ([4]; first compound 2.53 µM)?
A: The relative viability was 0.792.

Q: And the relative viability ([4]; first compound 8 µM)?
A: The relative viability was 0.731.

Q: What does the source list for LOU-NH91?
A: relative viability ([1]; first compound 0.08 µM): 0.973; relative viability ([1]; first compound 0.253 µM): 0.832; relative viability ([1]; first compound 0.8 µM): 0.856; relative viability ([1]; first compound 2.53 µM): 0.948; relative viability ([1]; first compound 8 µM): 0.776; relative viability ([2]; first compound 0.08 µM): 0.923; relative viability ([2]; first compound 0.253 µM): 0.932; relative viability ([2]; first compound 0.8 µM): 1.01; relative viability ([2]; first compound 2.53 µM): 1.02; relative viability ([2]; first compound 8 µM): 0.821; relative viability ([3]; first compound 0.08 µM): 0.625; relative viability ([3]; first compound 0.253 µM): 0.663; relative viability ([3]; first compound 0.8 µM): 0.758; relative viability ([3]; first compound 2.53 µM): 0.698; relative viability ([3]; first compound 8 µM): 0.604; relative viability ([4]; first compound 0.08 µM): 0.687; relative viability ([4]; first compound 0.253 µM): 0.709; relative viability ([4]; first compound 0.8 µM): 0.807; relative viability ([4]; first compound 2.53 µM): 0.749; relative viability ([4]; first compound 8 µM): 0.677
